# Data taken from patent US7943786B2, “Process for preparing amorphous (4R-cis)-6-[2-[3-phenyl-4-(phenylcarbamoyl)-2-(4-fluorophenyl)-5-(1-methylethyl)-pyrrol-1-yl]-ethyl]-2,2-dimethyl-[1,3]-dioxane-4-yl-acetic acid” (priority 2003, dated 2011).
# Key:
# Type in all cases: physicochemical
# [1] = Solubility in water
# [2] = Comparison of solubility of amorphous and crystalline form in aprotic organic solvents; details: e.g. diisopropyl ether, methyl cyclohexane, isopropanol
# [3] = Dissolution in tetrahydrofuran (clarity of solution)
SMILES,solubility in water [1],solubility of amorphous versus crystalline form [2],appearance of solution on dissolution in THF [3]
"CC(C)c1c(C(=O)Nc2ccccc2)c(-c2ccccc2)c(-c2ccc(F)cc2)n1CC[C@@H]1C[C@H](CC(=O)OC(C)(C)C)OC(C)(C)O1 [compound of the formula I, (4R-cis)-6-[2-[3-phenyl-4-(phenylcarbamoyl)-2-(4-fluorophenyl)-5-(1-methylethyl)-pyrrol-1-yl]-ethyl]-2,2-dimethyl-[1,3]-dioxane-4-yl-acetic acid-tertiary butyl ester]",very poor solubility in water or is practically insoluble in water,–,–
"CC(C)c1c(C(=O)Nc2ccccc2)c(-c2ccccc2)c(-c2ccc(F)cc2)n1CC[C@@H]1C[C@H](CC(=O)OC(C)(C)C)OC(C)(C)O1 [amorphous compound of the formula I, (4R-cis)-6-[2-[3-phenyl-4-(phenylcarbamoyl)-2-(4-fluorophenyl)-5-(1-methylethyl)-pyrrol-1-yl]-ethyl]-2,2-dimethyl-[1,3]-dioxane-4-yl-acetic acid-tertiary butyl ester]",–,better soluble,perfectly clear solution
"CC(C)c1c(C(=O)Nc2ccccc2)c(-c2ccccc2)c(-c2ccc(F)cc2)n1CC[C@@H]1C[C@H](CC(=O)OC(C)(C)C)OC(C)(C)O1 [crystalline compound of the formula I, (4R-cis)-6-[2-[3-phenyl-4-(phenylcarbamoyl)-2-(4-fluorophenyl)-5-(1-methylethyl)-pyrrol-1-yl]-ethyl]-2,2-dimethyl-[1,3]-dioxane-4-yl-acetic acid-tertiary butyl ester]",–,–,some dimness appeared
